Laboratory results from PubChem BioAssay (NCI).
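96-well plates; 48 h exposure; 5 concentrations. Endpoints by linear interpolation between flanking doses. Not reached: highest tested concentration assigned. TGI is the concentration that stops growth completely.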

Experiments:
Test in all cases: DTP human tumour cell line panel, 48 h
HCT-15 colon = system: HCT-15 colon
KM12 colon = system: KM12 colon
NCI-H226 lung = system: NCI-H226 lung
BT-549 breast = system: BT-549 breast
HT29 colon = system: HT29 colon
CAKI-1 renal = system: CAKI-1 renal
SF-295 CNS = system: SF-295 CNS
786-0 renal = system: 786-0 renal
M14 melanoma = system: M14 melanoma
SF-268 CNS = system: SF-268 CNS
SNB-75 CNS = system: SNB-75 CNS
MDA-N = system: MDA-N
CCRF-CEM leukemia = system: CCRF-CEM leukemia
LOX IMVI melanoma = system: LOX IMVI melanoma
DU-145 prostate = system: DU-145 prostate
SW-620 colon = system: SW-620 colon
SN12C renal = system: SN12C renal
IGROV1 ovarian = system: IGROV1 ovarian
HOP-92 NSCLC = system: HOP-92 NSCLC
MCF7 breast = system: MCF7 breast
HS 578T breast = system: HS 578T breast
U251 CNS = system: U251 CNS
RXF 393 renal = system: RXF 393 renal
SF-539 CNS = system: SF-539 CNS
EKVX NSCLC = system: EKVX NSCLC
SK-MEL-28 melanoma = system: SK-MEL-28 melanoma
SK-OV-3 ovarian = system: SK-OV-3 ovarian
T-47D breast = system: T-47D breast
PC-3 prostate = system: PC-3 prostate
UACC-62 melanoma = system: UACC-62 melanoma
HL-60(TB) leukemia = system: HL-60(TB) leukemia
OVCAR-3 ovarian = system: OVCAR-3 ovarian
HCT-116 colon = system: HCT-116 colon
UO-31 renal = system: UO-31 renal
SR leukemia = system: SR leukemia
SK-MEL-2 melanoma = system: SK-MEL-2 melanoma
HOP-62 NSCLC = system: HOP-62 NSCLC
SNB-19 CNS = system: SNB-19 CNS
RPMI-8226 leukemia = system: RPMI-8226 leukemia
OVCAR-8 ovarian = system: OVCAR-8 ovarian
MDA-MB-435 = system: MDA-MB-435
A549 NSCLC = system: A549 NSCLC
MOLT-4 leukemia = system: MOLT-4 leukemia
NCI-H522 lung = system: NCI-H522 lung
MDA-MB-231 breast = system: MDA-MB-231 breast
HCC-2998 colon = system: HCC-2998 colon
TK-10 renal = system: TK-10 renal
NCI-H23 lung = system: NCI-H23 lung
NCI/ADR-RES ovarian = system: NCI/ADR-RES ovarian
ACHN renal = system: ACHN renal
MALME-3M melanoma = system: MALME-3M melanoma
UACC-257 melanoma = system: UACC-257 melanoma
OVCAR-5 ovarian = system: OVCAR-5 ovarian
OVCAR-4 ovarian = system: OVCAR-4 ovarian
COLO 205 colon = system: COLO 205 colon
K-562 leukemia = system: K-562 leukemia
SK-MEL-5 melanoma = system: SK-MEL-5 melanoma
NCI-H460 lung = system: NCI-H460 lung

CSC1=N/C(=C\c2ccc(C)cc2)C(=O)N1
TGI (HCT-15 colon): > 100 µM | TGI (KM12 colon): > 100 µM | TGI (NCI-H226 lung): > 100 µM | TGI (BT-549 breast): > 100 µM | TGI (HT29 colon): > 100 µM | TGI (CAKI-1 renal): > 100 µM | TGI (SF-295 CNS): > 100 µM | TGI (786-0 renal): > 100 µM | TGI (M14 melanoma): > 100 µM | TGI (SF-268 CNS): > 100 µM | TGI (SNB-75 CNS): > 100 µM | TGI (MDA-N): > 100 µM | TGI (CCRF-CEM leukemia): > 100 µM | TGI (LOX IMVI melanoma): > 100 µM | TGI (DU-145 prostate): > 100 µM | TGI (SW-620 colon): > 100 µM | TGI (SN12C renal): > 100 µM | TGI (IGROV1 ovarian): > 100 µM | TGI (HOP-92 NSCLC): > 100 µM | TGI (MCF7 breast): > 100 µM | TGI (HS 578T breast): > 100 µM | TGI (U251 CNS): > 100 µM | TGI (RXF 393 renal): 96.2 µM | TGI (SF-539 CNS): > 100 µM | TGI (EKVX NSCLC): > 100 µM | TGI (SK-MEL-28 melanoma): > 100 µM | TGI (SK-OV-3 ovarian): > 100 µM | TGI (T-47D breast): > 100 µM | TGI (PC-3 prostate): > 100 µM | TGI (UACC-62 melanoma): > 100 µM | TGI (HL-60(TB) leukemia): > 100 µM | TGI (OVCAR-3 ovarian): > 100 µM | TGI (HCT-116 colon): > 100 µM | TGI (UO-31 renal): > 100 µM | TGI (SR leukemia): > 100 µM | TGI (SK-MEL-2 melanoma): > 100 µM | TGI (HOP-62 NSCLC): > 100 µM | TGI (SNB-19 CNS): > 100 µM | TGI (RPMI-8226 leukemia): > 100 µM | TGI (OVCAR-8 ovarian): > 100 µM | TGI (MDA-MB-435): > 100 µM | TGI (A549 NSCLC): > 100 µM | TGI (MOLT-4 leukemia): > 100 µM | TGI (NCI-H522 lung): > 100 µM | TGI (MDA-MB-231 breast): > 100 µM | TGI (HCC-2998 colon): > 100 µM | TGI (TK-10 renal): > 100 µM | TGI (NCI-H23 lung): > 100 µM | TGI (NCI/ADR-RES ovarian): > 100 µM | TGI (ACHN renal): > 100 µM | TGI (MALME-3M melanoma): > 100 µM | TGI (UACC-257 melanoma): > 100 µM | TGI (OVCAR-5 ovarian): > 100 µM | TGI (OVCAR-4 ovarian): > 100 µM | TGI (COLO 205 colon): > 100 µM

CC1(C)C2CC(O)C1(C)CC2=O (stereo not given)
TGI (HCT-15 colon): > 100 µM | TGI (KM12 colon): > 100 µM | TGI (NCI-H226 lung): > 100 µM | TGI (BT-549 breast): > 100 µM | TGI (HT29 colon): > 100 µM | TGI (SF-295 CNS): > 100 µM | TGI (786-0 renal): > 100 µM | TGI (M14 melanoma): > 100 µM | TGI (SF-268 CNS): > 100 µM | TGI (SNB-75 CNS): > 100 µM | TGI (MDA-N): > 100 µM | TGI (CCRF-CEM leukemia): > 100 µM | TGI (LOX IMVI melanoma): > 100 µM | TGI (DU-145 prostate): > 100 µM | TGI (K-562 leukemia): > 100 µM | TGI (SW-620 colon): > 100 µM | TGI (SN12C renal): > 100 µM | TGI (IGROV1 ovarian): > 100 µM | TGI (HOP-92 NSCLC): > 100 µM | TGI (MCF7 breast): > 100 µM | TGI (HS 578T breast): > 100 µM | TGI (U251 CNS): > 100 µM | TGI (RXF 393 renal): > 100 µM | TGI (SF-539 CNS): > 100 µM | TGI (SK-MEL-5 melanoma): > 100 µM | TGI (SK-MEL-28 melanoma): 14.8 µM | TGI (SK-OV-3 ovarian): > 100 µM | TGI (T-47D breast): > 100 µM | TGI (PC-3 prostate): > 100 µM | TGI (UACC-62 melanoma): > 100 µM | TGI (HL-60(TB) leukemia): > 100 µM | TGI (OVCAR-3 ovarian): > 100 µM | TGI (HCT-116 colon): > 100 µM | TGI (UO-31 renal): > 100 µM | TGI (SR leukemia): > 100 µM | TGI (HOP-62 NSCLC): > 100 µM | TGI (SNB-19 CNS): > 100 µM | TGI (RPMI-8226 leukemia): > 100 µM | TGI (OVCAR-8 ovarian): > 100 µM | TGI (MDA-MB-435): > 100 µM | TGI (A549 NSCLC): > 100 µM | TGI (MOLT-4 leukemia): > 100 µM | TGI (NCI-H522 lung): > 100 µM | TGI (MDA-MB-231 breast): > 100 µM | TGI (HCC-2998 colon): > 100 µM | TGI (TK-10 renal): > 100 µM | TGI (NCI-H23 lung): > 100 µM | TGI (NCI/ADR-RES ovarian): > 100 µM | TGI (ACHN renal): > 100 µM | TGI (MALME-3M melanoma): > 100 µM | TGI (NCI-H460 lung): > 100 µM | TGI (UACC-257 melanoma): > 100 µM | TGI (OVCAR-5 ovarian): > 100 µM | TGI (OVCAR-4 ovarian): > 100 µM | TGI (COLO 205 colon): > 100 µM
